# Experimental data as given in publication PMC10386886, “First-in-class multifunctional TYMS nonclassical antifolate inhibitor with potent in vivo activity that prolongs survival” (JCI Insight, 2023).
# Like-named read-outs stand apart in the source and are kept apart here.
# Legend:
# purified human TYMS [1] = target: T1, purified human TYMS (Homo sapiens, UniProt P04818); assay: Tritium-based TYMS catalytic activity assay; format: biochemical; conditions: for TS activity, comparison at decreasing drug concentrations: Figure 6C; for TS activity (conversion of dUMP) in the presence of drug: drug 250 μM, 10 μg/mL TS protein, Figure 1B
# T1 construct: 6xHis (N); made in house; host or cells: E. coli BL21 (DE3), vector pQE80L-hTYMS
# Protocol: To determine the inhibition of TYMS activity, we utilized a tritium-based TYMS catalytic assay (Figure 1A) to quantify the conversion of dUMP, which is proportional to TYMS activity ([33]). The assay was based on a previously published protocol ([33]) and modified to determine the amount of purified human TYMS (hTYMS) to be used in the conversion of dUMP to dTMP. […]
# Tritium based TYMS catalytic activity assay
# The catalytic activity of TYMS was determined by measuring the release of [3H] from [5-3H]dUMP (ViTrax, Cat # VT122) resulting from the conversion of dUMP to dTMP as previously described (2, 3).
# The reaction conditions were optimized to determine the amount of TYMS protein needed to establish […]
# reactions performed without TYMS or without the 5,10-methylene tetrahydrofolate (5,10-mTHF) cofactor (Supplemental Figure 2 and Supplemental methods). Reactions were performed in 50 mM KH2PO4 (Sigma Aldrich, Cat # P0662) at pH 7.2 using 2 µg of purified human TYMS. Reactions were performed in a final volume of 200 µL with 100 mM β-mercaptoethanol (Sigma Aldrich, Cat # M7522), 40 µM dUMP (Sigma Aldrich, Cat # D3876), 100 µM 5,10-mTHF, and the [5-3H]dUMP tracer (ViTrax, Cat # VT122) accounting for 0.06% of the final dUMP concentration in the reaction. The 5,10-mTHF used in the reaction was separately generated from tetrahydrofolic acid (Sigma Aldrich, Cat # T3125) by dissolving the solid in 10 mM KH2PO4 with 143 mM β-mercaptoethanol (1:100 from 14.3 M pure liquid), and 6.35 mM formaldehyde (Sigma Aldrich, Cat # 47608) to yield a 100 mM stock solution of 5,10- mTHF. Reactions were initiated by the addition of the dUMP substrate and 5,10-mTHF cofactor, then incubated at 37 °C for 30 minutes. […]
# before the reaction was initiated by the addition of the dUMP substrate and 5,10-mTHF cofactor.
# Reactions were terminated by the addition of 100 µL of ice-cold 20% trichloroacetic acid (Sigma Aldrich, Cat # T6399), then excess [5-3H]dUMP was removed by the addition of 200 µL of an albumin-coated activated charcoal solution. The albumin-coated activated charcoal solution was prepared by mixing 10 g of acid- washed activated dextran coated charcoal (Sigma Aldrich, Cat # C6241) with 2.5 g of bovine albumin (Sigma Aldrich, Cat # A1933) in 100 mL of H2O. The suspension was incubated at room temperature for 30 minutes and then centrifuged for 30 minutes at 10,000 x g. Then 150 µL of the supernatant was collected and added to 5 mL of ultima gold liquid scintillation cocktail (Perkin Elmer, Cat # 6013326, lot: 77-19085), and scintillation measurements were perform using a liquid scintillation counter (Beckman Coulter LS6500) to determine [3H]H2O levels in each sample. For all experiments, positive control reactions were performed with no drug representing 100% TYMS activity, and negative
# DHFR = target: T2, DHFR (Homo sapiens, UniProt P00374); assay: Absorbance-based DHFR activity assay; format: biochemical
# T2 construct: purchased Sigma D6566 (kit CS0340)
# T2 sequence (P00374 1-187): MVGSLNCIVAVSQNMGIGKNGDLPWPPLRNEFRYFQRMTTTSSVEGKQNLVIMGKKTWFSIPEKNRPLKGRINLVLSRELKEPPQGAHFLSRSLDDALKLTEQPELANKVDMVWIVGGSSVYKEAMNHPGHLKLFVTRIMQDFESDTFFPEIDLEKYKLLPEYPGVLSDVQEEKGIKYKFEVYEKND
# Protocol: DHFR assay kit (Sigma Aldrich, Cat # CS0340) as described by the manufacturer. 0.1-unit DHFR
# analogues or control drugs, 6 μL NADPH Cat # N6505 solution and 5 μl of dihydrofolic acid (DHFR
# substrate) (Sigma, Cat # D7006). The reaction was then read on the spectrophotometer at 340 nm at
# 22 °C every 15 seconds for 2.5 minutes.
# purified human TYMS [2] = target: T1, purified human TYMS; assay: Competitive drug displacement assay (tritium TYMS assay); format: biochemical; conditions: for dUMP conversion with increasing 5,10-mTHF concentration / dUMP conversion with increasing dUMP concentration: TS preincubated with drug, Figure 7
# Protocol: For these experiments the TYMS protein was first incubated with each drug, and the reaction was then initiated by addition of 5,10-mTHF and dUMP using different concentrations of either 5,10-mTHF or dUMP to change the substrate/drug ratio. If there was competition between one of the substrates and the drug for the same binding site, then increasing the substrate concentration would displace more of the prebound drug and shift the equilibrium toward the enzyme/substrate complex, thus allowing the conversion of dUMP to proceed (Figure 7A). […]
# all components including 2 µg TYMS protein to show the range of the assay, the background signal, and the dependence on 5,10-mTHF (Supplemental Figure 2C). To determine the signal from the [5-3H]dUMP tracer used in each reaction the same amount of the dUMP substrate with the [5-3H]dUMP tracer accounting for 0.06% of the final dUMP concentration was added directly to 5 mL of ultima gold liquid scintillation cocktail (Supplemental Figure 2C).
# All reactions were performed in biological duplicate and technical duplicate. Results were analyzed using GraphPad Prism 9.
# Competitive drug displacement assay
# The tritium based TYMS catalytic activity assay was modified to determine if TYMS inhibition from 19-S, 19-S5, and 19-S7 was the result of competitive binding with either the dUMP substrate or the 5,10-mTHF cofactor. The competitive drug displacement assay utilized the standard reaction conditions for the tritium-based TYMS catalytic activity assay including 40 µM dUMP (Sigma Aldrich, Cat # D3876) with the [5- 3H]dUMP tracer (ViTrax, VT122) accounting for 0.06% of the final dUMP concentration and 100 µM 5,10- methylene tetrahydrofolate (defined as 1x dUMP and 1x 5,10-mTHF). Concentrations of total dUMP and 5,10- mTHF were then changed relative to these 1x concentrations to concisely indicate the changes in either the substrate or cofactor concentration. The highest 5x concentration of 5,10 - […]
# 5x concentration of total dUMP was not limited by solubility, although increases were performed in the same increments as 5,10-mTHF for comparison and 0.06% of the [5-3H]dUMP tracer was maintained at all concentrations. The remaining components in each 200 µL reaction were consistent in all reactions and included 2 µg of purified human TYMS in 50 mM KH2PO4 (Sigma Aldrich, Cat # P0662) and 100 mM β- mercaptoethanol (Sigma Aldrich, Cat # M7522). Control antifolate inhibitor PEM (Sigma Aldrich, Cat # PHR1596) was performed for reference of a TYMS specific classical antifolate and to […]
# Human TYMS and DHFR preparation
# Human Thymidylate Synthase (hTYMS) and human Dihydrofolate Reductase (hDHFR) were both expressed in BL21 (DE3) E. coli cells, using a standard BL21 transformation protocol, with the expression vector pQE80L-hTYMS (gift from Maria Paola Costi, University of Modena and Reggio Emilio, Italy) and pET100/D- TOPO (Invitrogen, Cat # K10001), respectively. Both vectors contained an N-terminal 6x Histidine tag attached to either hTYMS or hDHFR. After bacterial transformation, cells
# MIA PaCa-2 cells = assay: MTS viability assay, MIA PaCa-2; format: cell-based; conditions: Homo sapiens, 72-hour drug treatment, Figure 6E, highest concentration 350 μM
# Protocol: Cells were harvested after 72 hours, and cell pellets were stored at –80°C. […] After 72 hours, cell viability was assessed by reduction of MTS using Cell Titer 96 R Aqueous One Solution Cell Proliferation Assay Kit (Promega, catalog G8081), following manufacturer’s recommendations. […] was measured on a SpectraMax M3 (Molecular Devices). Data were plotted in GraphPad Prism 9 to determine GI50 concentration. Chemical synthesis details, including characterization of each compound, can be found in the Supplemental section associated with this publication.
# T1 sequence (P04818 whole entry): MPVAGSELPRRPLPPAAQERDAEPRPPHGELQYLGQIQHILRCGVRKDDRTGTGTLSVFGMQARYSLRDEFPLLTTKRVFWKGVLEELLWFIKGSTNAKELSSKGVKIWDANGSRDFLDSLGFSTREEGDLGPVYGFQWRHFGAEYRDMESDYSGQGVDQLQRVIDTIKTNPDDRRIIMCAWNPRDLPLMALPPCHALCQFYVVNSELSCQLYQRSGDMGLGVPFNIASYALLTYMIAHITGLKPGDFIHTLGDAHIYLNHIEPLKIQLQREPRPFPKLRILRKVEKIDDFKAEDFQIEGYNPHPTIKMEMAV
Compound,"TS activity, comparison at decreasing drug concentrations (purified human TYMS [1])","dUMP conversion with increasing 5,10-mTHF concentration (purified human TYMS [2])",dUMP conversion with increasing dUMP concentration (purified human TYMS [2]),TS activity (conversion of dUMP) in the presence of drug (purified human TYMS [1]),other results
CCc1nc(N)nc(N)c1-c1ccc(N(C)Cc2ccc(OC)cc2)c([N+](=O)[O-])c1 [Compound 19-S5],greater TYMS inhibition than both MTX and PEM,increased the amount of dUMP conversion,the amount of dUMP conversion did not increase,,"TS activity, screen of 19-S series analogs (purified human TYMS [1]; 250 μM, Figure 6A): inhibited TYMS activity; DHFR activity, comparison at reduced drug concentrations (DHFR; Figure 6D): potent TYMS and DHFR inhibition; Mechanism of TYMS inhibition (purified human TYMS [2]): blocking the folate-binding site; GI50 (MIA PaCa-2 cells): 280 nM"
CCc1nc(N)nc(N)c1-c1ccc(NCCOCCOCCN)c([N+](=O)[O-])c1 [Compound 19-S10],,,,,"DHFR activity, screen of 19-S series analogs (DHFR; 1 μM, Figure 6B): exception"
"O=c1[nH]c(=O)n([C@@H]2O[C@H](CO)[C@@H](O)[C@H]2O)cc1F [FUrd, 5-fluorouridine]",,,,inactive,
"O=c1[nH]c(=O)n([C@H]2C[C@H](O)[C@@H](CO)O2)cc1F [FdUrd, 5-fluoro-2′-deoxyuridine]",,,,reduced conversion of dUMP,
"Nc1nc2[nH]cc(CCc3ccc(C(=O)N[C@@H](CCC(=O)O)C(=O)O)cc3)c2c(=O)[nH]1 [PEM, pemetrexed]",greater TYMS inhibition than the MTX antifolate,increased the dUMP conversion,did not increase dUMP conversion,,"DHFR activity, comparison at reduced drug concentrations (DHFR): less effective against DHFR"
